Laboratory results reported in patent US20110015068A1, “Herbicidal Compositions Comprising Pyroxasulfone V” (BASF SE, priority 2008, published 2011).
Read-outs that look alike come from different tables or passages of the source.

Assays:
[1] = test system: Setaria faberii; assay: pre-emergence greenhouse test, SETFA; type: in vivo; conditions: Setaria faberi, read-out: observed % activity; for inhibition at 25 g/ha: 25 g ai/ha; for inhibition at 50 g/ha: 50 g ai/ha
Description: (§1) For the pre-emergence treatment, directly after sowing the active compounds, which had been suspended or emulsified in water, were applied by means of finely distributed nozzles. The containers were irrigated gently to promote germination and growth and subsequently covered with transparent plastic hoods until plant had rooted. This cover caused uniform germination of the tests plants, unless this was adversely affected by active compounds.
(§2) The respective herbicides A and/or safener were formulated as 10% by weight strength suspension concentrate and introduced to the spray liquor with the amount of solvent system used for applying the active compound. Herbicide B and/or safener were used as commercially available formulations and introduced to the spray liquor with the amount of solvent system used for applying the active compound. In the examples, the solvent used was water.
(§3) The test period extended over 21 days. During this time, the plants were tended, and their response to the treatments with active compound was evaluated.
(§4) The evaluation for the damage caused by the chemical compositions was carried out using a scale from 0 to 100%, compared to the untreated control plants. Here, 0 means no damage and 100 means complete destruction of the plants.

[2] = test system: Bromus inermis; assay: pre-emergence greenhouse test, BROIN; type: in vivo; conditions: Bromus inermis, 25 g ai/ha, read-out: observed % activity
Description: as §1, §2, §3, §4

[3] = test system: Sorghum halepense; assay: pre-emergence greenhouse test, SORHA; type: in vivo; conditions: Sorghum halepense, 25 g ai/ha, read-out: observed % activity
Description: as §1, §2, §3, §4

[4] = test system: Chenopodium album; assay: pre-emergence greenhouse test, CHEAL; type: in vivo; conditions: Chenopodium album, read-out: observed % activity; for inhibition at 25 g/ha: 25 g ai/ha; for inhibition at 50 g/ha: 50 g ai/ha
Description: as §1, §2, §3, §4

[5] = test system: Ambrosia artemisifolia; assay: pre-emergence greenhouse test, AMBEL; type: in vivo; conditions: Ambrosia, read-out: observed % activity; for inhibition at 25 g/ha: 25 g ai/ha; for inhibition at 50 g/ha: 50 g ai/ha
Description: as §1, §2, §3, §4

[6] = test system: Matricaria inermis; assay: pre-emergence greenhouse test, MATIN; type: in vivo; conditions: Matricaria, read-out: observed % activity; for inhibition at 25 g/ha: 25 g ai/ha; for inhibition at 50 g/ha: 50 g ai/ha
Description: as §1, §2, §3, §4

[7] = test system: Galium aparine; assay: pre-emergence greenhouse test, GALAP; type: in vivo; conditions: Galium aparine, read-out: observed % activity; for inhibition at 25 g/ha: 25 g ai/ha; for inhibition at 50 g/ha: 50 g ai/ha
Description: as §1, §2, §3, §4

[8] = test system: Echinochloa crus-galli; assay: post-emergence greenhouse test, ECHCG; type: in vivo; conditions: for inhibition at 13 g/ha: Echinochloa crus-galli, 13 g ai/ha, read-out: observed % activity
Description: (§5) For the post-emergence treatment, the test plants were first grown to a height of 3 to 20 cm, depending on the plant habit, and only then treated. Here, the herbicidal compositions were suspended or emulsified in water as distribution medium and sprayed using finely distributing nozzles.
as §2, §3, §4

[9] = test system: Alopecurus myosuroides; assay: post-emergence greenhouse test, ALOMY; type: in vivo; conditions: for observed activity in % destruction: Table 3; for inhibition at 13 g/ha / inhibition at 100 g/ha: Alopecurus myosuroides, read-out: observed % activity; for inhibition at 13 g/ha: 13 g ai/ha
Description: as §5, §2, §3, §4

[10] = test system: Sorghum halepense; assay: post-emergence greenhouse test, SORHA; type: in vivo; conditions: Sorghum halepense, 50 g ai/ha, read-out: observed % activity
Description: as §5, §2, §3, §4

[11] = test system: Chenopodium album; assay: post-emergence greenhouse test, CHEAL; type: in vivo; conditions: for inhibition at 13 g/ha / inhibition at 50 g/ha: Chenopodium album, read-out: observed % activity; for inhibition at 13 g/ha: 13 g ai/ha; for inhibition at 50 g/ha: 50 g ai/ha
Description: as §5, §2, §3, §4

[12] = test system: Solanum nigrum; assay: post-emergence greenhouse test, SOLNI; type: in vivo; conditions: Solanum nigrum, read-out: observed % activity; for inhibition at 13 g/ha: 13 g ai/ha; for inhibition at 100 g/ha: 100 g ai/ha
Description: as §5, §2, §3, §4

[13] = test system: Xanthium strumarium; assay: post-emergence greenhouse test, XANST; type: in vivo; conditions: Xanthium strumarium, read-out: observed % activity; for inhibition at 13 g/ha: 13 g ai/ha; for inhibition at 25 g/ha: 25 g ai/ha; for inhibition at 100 g/ha: 100 g ai/ha
Description: as §5, §2, §3, §4

[14] = test system: Galium aparine; assay: post-emergence greenhouse test, GALAP; type: in vivo; conditions: for inhibition at 25 g/ha / inhibition at 100 g/ha: Galium aparine, read-out: observed % activity; for inhibition at 25 g/ha: 25 g ai/ha; for inhibition at 100 g/ha: 100 g ai/ha
Description: as §5, §2, §3, §4

[15] = test system: Kochia scoparia; assay: post-emergence greenhouse test, KCHSC; type: in vivo; conditions: Bassia scoparia, read-out: observed % activity; for inhibition at 13 g/ha: 13 g ai/ha; for inhibition at 100 g/ha: 100 g ai/ha
Description: as §5, §2, §3, §4

[16] = test system: Avena fatua; assay: post-emergence greenhouse test, AVEFA; type: in vivo; conditions: 50 g ai/ha, 20 DAT, Table 3
Description: as §5, §2, §3, §4

[17] = test system: Digitaria sanguinalis; assay: post-emergence greenhouse test, DIGSA; type: in vivo; conditions: 20 DAT
Description: as §5, §2, §3, §4

[18] = test system: Lolium multiflorum; assay: post-emergence greenhouse test, LOLMU; type: in vivo; conditions: 20 DAT
Description: as §5, §2, §3, §4

[19] = test system: Setaria viridis; assay: post-emergence greenhouse test, SETVI; type: in vivo; conditions: 25 g ai/ha, 20 DAT, Table 3
Description: as §5, §2, §3, §4

[20] = test system: Matricaria inermis; assay: post-emergence greenhouse test, MATIN; type: in vivo; conditions: 20 DAT
Description: as §5, §2, §3, §4

[21] = test system: harmful plants; conditions: known from Y. Yamaji et al., 2006; cited from earlier work

Cn1nc(C(F)(F)F)c(CS(=O)(=O)C2=NOC(C)(C)C2)c1OC(F)F [pyroxasulfone, 3-[5-(difluoromethoxy)-1-methyl-3-(trifluoromethyl)pyrazol-4-ylmethylsulfonyl]-4,5-dihydro-5,5-dimethyl-1,2-oxazole]
inhibition at 25 g/ha ([1]; 192 h, 8 DAT): 85% | inhibition at 50 g/ha ([1]; 192 h, 8 DAT): 90% | inhibition at 25 g/ha ([1]; 480 h, 20 DAT): 98% | inhibition at 50 g/ha ([1]; 480 h, 20 DAT): 98% | inhibition at 25 g/ha ([2]; 192 h, 8 DAT): 60% | inhibition at 25 g/ha ([2]; 480 h, 20 DAT): 75% | inhibition at 25 g/ha ([3]; 192 h, 8 DAT): 75% | inhibition at 25 g/ha ([3]; 480 h, 20 DAT): 95% | inhibition at 25 g/ha ([4]; 192 h, 8 DAT): 65% | inhibition at 50 g/ha ([4]; 192 h, 8 DAT): 70% | inhibition at 25 g/ha ([4]; 480 h, 20 DAT): 95% | inhibition at 50 g/ha ([4]; 480 h, 20 DAT): 98% | inhibition at 25 g/ha ([5]; 192 h, 8 DAT): 40% | inhibition at 50 g/ha ([5]; 192 h, 8 DAT): 50% | inhibition at 25 g/ha ([5]; 480 h, 20 DAT): 65% | inhibition at 50 g/ha ([5]; 480 h, 20 DAT): 80% | inhibition at 25 g/ha ([6]; 192 h, 8 DAT): 0% | inhibition at 50 g/ha ([6]; 192 h, 8 DAT): 20% | inhibition at 25 g/ha ([6]; 480 h, 20 DAT): 60% | inhibition at 50 g/ha ([6]; 480 h, 20 DAT): 85% | inhibition at 25 g/ha ([7]; 192 h, 8 DAT): 50% | inhibition at 50 g/ha ([7]; 192 h, 8 DAT): 70% | inhibition at 25 g/ha ([7]; 480 h, 20 DAT): 80% | inhibition at 50 g/ha ([7]; 480 h, 20 DAT): 90% | observed activity in % destruction ([8]; 50 g ai/ha, 20 DAT, Table 3): 80% | inhibition at 13 g/ha ([8]; 192 h, 8 DAT): 25% | inhibition at 13 g/ha ([8]; 480 h, 20 DAT): 80% | observed activity in % destruction ([9]; 50 g ai/ha, 20 DAT): 55% | observed activity in % destruction ([9]; 100 g ai/ha, 20 DAT): 80% | inhibition at 13 g/ha ([9]; 192 h, 8 DAT): 0% | inhibition at 100 g/ha ([9]; 192 h, 100 g ai/ha, 8 DAT): 40% | inhibition at 13 g/ha ([9]; 480 h, 20 DAT): 15% | inhibition at 100 g/ha ([9]; 480 h, 100 g ai/ha, 20 DAT): 75% | inhibition at 50 g/ha ([10]; 192 h, 8 DAT): 65% | inhibition at 50 g/ha ([10]; 480 h, 20 DAT): 90% | observed activity in % destruction ([11]; 12.5 g ai/ha, 20 DAT, Table 3): 35% | observed activity in % destruction ([11]; 25 g ai/ha, 20 DAT, Table 4): 45% | inhibition at 13 g/ha ([11]; 192 h, 8 DAT): 35% | inhibition at 50 g/ha ([11]; 192 h, 8 DAT): 60% | inhibition at 13 g/ha ([11]; 480 h, 20 DAT): 25% | inhibition at 50 g/ha ([11]; 480 h, 20 DAT): 65% | inhibition at 13 g/ha ([12]; 192 h, 8 DAT): 75% | inhibition at 100 g/ha ([12]; 192 h, 8 DAT): 75% | inhibition at 13 g/ha ([12]; 480 h, 20 DAT): 75% | inhibition at 100 g/ha ([12]; 480 h, 20 DAT): 90% | inhibition at 13 g/ha ([13]; 192 h, 8 DAT): 0% | inhibition at 25 g/ha ([13]; 192 h, 8 DAT): 20% | inhibition at 100 g/ha ([13]; 192 h, 8 DAT): 25% | inhibition at 13 g/ha ([13]; 480 h, 20 DAT): 0% | inhibition at 25 g/ha ([13]; 480 h, 20 DAT): 25% | inhibition at 100 g/ha ([13]; 480 h, 20 DAT): 55% | observed activity in % destruction ([14]; 12.5 g ai/ha, 20 DAT, Table 4): 40% | inhibition at 25 g/ha ([14]; 192 h, 8 DAT): 60% | inhibition at 100 g/ha ([14]; 192 h, 8 DAT): 70% | inhibition at 25 g/ha ([14]; 480 h, 20 DAT): 85% | inhibition at 100 g/ha ([14]; 480 h, 20 DAT): 90% | inhibition at 13 g/ha ([15]; 192 h, 8 DAT): 60% | inhibition at 100 g/ha ([15]; 192 h, 8 DAT): 60% | inhibition at 13 g/ha ([15]; 480 h, 20 DAT): 50% | inhibition at 100 g/ha ([15]; 480 h, 20 DAT): 70% | observed activity in % destruction [16]: 75% | observed activity in % destruction ([17]; 12.5 g ai/ha, Table 4): 50% | observed activity in % destruction ([17]; 50 g ai/ha, Table 3): 80% | observed activity in % destruction ([18]; 12.5 g ai/ha, Table 3): 55% | observed activity in % destruction ([18]; 25 g ai/ha, Table 3): 55% | observed activity in % destruction ([18]; 50 g ai/ha, Table 4): 55% | observed activity in % destruction [19]: 75% | observed activity in % destruction ([20]; 12.5 g ai/ha, Table 3): 0% | observed activity in % destruction ([20]; 25 g ai/ha, Table 3): 0% | observed activity in % destruction ([20]; 25 g ai/ha, Table 4): 0% | post-emergence activity [21]: poor
